Data set [1] concerns FSK-4 cells. Briefly: Assay (IV): Glucose utilisation in FSK-4 cells. Particulars: for EC50: read-out: FSK4 EC50; for Emax: read-out: FSK4 Emax (% of FCCP). It counts as cell-based. The method, then: Assay (IV): Glucose Utilisation in FSK-4 Cells
The assay measures indirectly the activity of the respiratory chain in FSK-4 cells by using D-(6-^3H(N))-glucose. The ^3H-proton will first be released in the TCA cyclus and transported to the respiratory chain where it will be incorporated into water. The water is thereafter separated from the D-(6-^3H(N))-glucose by evaporation. Finally, the radioactivity in the water is determined using a Topcounter.
FSK-4 cells obtained from ATCC (Maryland, USA), are cultured in growth medium (McCoy's medium with the following addition 100 units/ml penicillin and streptomycin and 10% FCS (fetal calf serum)) at 37° C. and 5% CO2. All media are obtained by Gibco (Life Technologies, Maryland, USA) where not otherwise mentioned.
At day zero the cells are harvested using trypsin-EDTA and washed in assay medium (MEM medium with the following addition 1× non-essential amino acids (M7145, 2 mM glutamin, 100 units/ml pencillin and streptomycin, 0.0075% sodium bicarbonate, 1 mM sodium pyrovate and 2% horse serum) using centrifugation. The cells are plated into single StripPlates wells (Corning B.V.Life Sciences, The Netherlands) that are placed into 24-well plates (Corning B.V.Life Sciences, The Netherlands) with a concentration of 1,5×10^4 cells/100 μl assay medium/well. The cells are then incubated at 37° C. and 5% CO2 overnight.
(§1) The next day the compounds to be tested are diluted to different concentrations in DMSO (Sigma, Missouri, USA) to 100 times final concentration. They are then diluted to a final concentration in assay medium containing 10 μCi/ml D-(6-^3H(N))-glucose (PerkinElmer Life Sciences Inc., Boston, USA). The medium is removed from the cells and 200 μl of the compound dilutions are added in duplicates. The cells are then incubated for another 24 hours at 37° C. and 5% CO2. Finally the cells are lysed by adding 50 μl 10% TCA (tri-chloroacetatic acid). 300 μl of sterile water is then added to the 24-wells that surrounds the StripPlate wells. The plate is sealed with Top-seal-tape (Packard, PerkinElmer Life Sciences Inc., Boston, USA) and the plate is incubated in a heating cupboard at 50° C. to equilibrium the radioactive water formed in the respiratory chain into the water in the 24-well plate by evaporate. The plates incubate for 8 hours where the heating cupboard is turned off. The top seal is removed when the samples have reached room temperature. One ml scintillation liquid (Packard Microscient, PerkinElmer Life Sciences Inc., Boston, USA) is added to all the samples and the radioactivity is determined using a Topcounter (Packard, PerkinElmer Life Sciences Inc., Boston, USA). Non-specific activity is determined by evaporating 200 μl of the dilution medium containing the D-(6-^3H(N))-glucose into 300 μl sterile water, and total radioactivity is determined by counting 5 μl assay medium with 10 μCi/ml D-(6-^3H(N))-glucose.
All calculations are done using GraphPad Prism 3.0 (GraphPad software, Inc.) From concentration-response curves the half maximal concentration (EC50) and maximal efficacy (Emax) are calculated using equation 1.
Y=Bottom+(Top−Bottom)/(1+10^((LogEc50-X)*slope))
(§2) X is the logarithm of the molar concentration of the test compound.
Y is the degree of stimulation caused by the compound measured as percentage of the basal stimulation.
The calculated EC50 value is then used to determine the concentrations used in a study where the Hill slope is calculated.
From the double logarithmic plot of the increase in glucose utilisation and the compound concentration the Hill slope is calculated accordingly to equation 2.
It is presumed, that the maximal increase in the glucose utilisation (as measured in the FSK-4 glucose utilisation assay) is limited by the capacity of the metabolism.

Data set [2] relates to HEP-G2 cells. Description: cells. Particulars: for EC50 / Emax / EC (Emax): Homo sapiens; for EC50: HepG2, 3 h, read-out: HEP-G2 EC50, HEP-G2 cells, glucose utilisation, 3 hours incubation; for Emax: HepG2, read-out: HEP-G2 Emax (% of FCCP), HEP-G2 cells, maximal stimulation relative to FCCP; for EC (Emax): HepG2, read-out: HEP-G2 Emax (μM), HEP-G2 cells, concentration at which Emax is achieved (CEmax). As to the method: Assay (I): Glucose utilisation in a human hepatocytes cell line (HEP-G2 cells)
The assay measures indirectly the activity of the respiratory chain in HEP-G2 cells by using D-(3-^3H(N))-glucose. The ^3H-proton will first be released during the metabolism of glucose where it will be incorporated into water. The water is thereafter separated from the D-(3-^3H(N))-glucose by evaporation. Finally, the radioactivity in the water is determined using a Topcounter.
HEP-G2 cells obtained from ATCC (Maryland, USA), are cultured in assay medium (MEM medium) with the following addition 1× non-essential amino acids (M7145, 2 mM glutamine, 100 units/ml penicillin and streptomycin, 0.0075% sodium bicarbonate, 1 mM sodium pyrovate and 0.5% BSA (Bovin Serum Albumin, Sigma Missouri, USA)) at 37° C. and 5% CO2. All media are obtained by Gibco (Life Technologies, Maryland, USA) where not otherwise mentioned.
At day zero the cells are harvested using trypsin-EDTA and washed in assay medium using centrifugation. […] The cells are then incubated at 37° C. and 5% CO2 overnight.
as §1, with “diluted” for “diluted to different concentrations”, “μCi/ml D-(3-^3H(N))-glucose” for “μCi/ml D-(6-^3H(N))-glucose”, “another 3” for “another 24”, “TCA (trichloroacetic” for “TCA (tri-chloroacetatic”, “the D-(3-^3H(N))-glucose” for “the D-(6-^3H(N))-glucose”, “μCi/ml D-(3-^3H(N))-glucose.” for “μCi/ml D-(6-^3H(N))-glucose.”
The cpm (counts per minute) representing the non-specific radioactivity in the D-(3-^3H(N))-glucose is subtracted from all incubated values. Then mean basal value (samples without any compound added) is subtracted from the values of all stimulated samples (samples added different concentrations of the different test compounds). All these calculations are done using GraphPad Prism 3.0 (GraphPad software, Inc.). The maximal stimulation caused by the test compounds is calculated in percentage of maximal stimulation caused by either DNP or FCCP.
When calculating the concentration-response curve the maximal glucose utilisation stimulated by FCCP or DNP (subtracted non-specific and basal values) is converted to 100% and all the other values are expressed in percentage of this value. Using these percentage values and the compound concentration a concentration-response curve is calculated using sigmoidal dose-response (variable slope) equation (all the calculations are done by GraphPad Prism 3.0 (GraphPad software, Inc.));
Y=Bottom+(Top−Bottom)/(1+10^((LogEC50-X)*slope))
as §2
Y is the degree of stimulation caused by the compound measured as a percentage of the maximal stimulation achieved by use of FCCP or DNP.
The results achieved with these concentrations are used to determine the slope in this area using the following equation: […]

Setting [3] is: FSK-4 cells, glucose utilisation, 24 hours incubation.
Where [4] appears, read: FSK-4 cells, maximal efficacy relative to FCCP.

From patent publication US20040138301A1, “Chemical uncouplers for the treatment of obesity” (priority 2002, published 2004) come the findings set out here.

Read-outs that look alike come from different tables or passages of the source.

As for `N#CC(C#N)=Cc1c[nH]c2ccc([N+](=O)[O-])cc12` [Example 35, 2-(5-Nitro-1H-Indol-3-Ylmethylene)-Malononitrile], the EC50 in data set [1] (setting [3]) is 5000 nM. In addition, the Emax in data set [1] (setting [4]) amounted to 50%.
Regarding `Cc1[nH]c2ccc([N+](=O)[O-])cc2c1C=C(C#N)C#N` [Example 36, 2-(2-Methyl-5-Nitro-1H-Indol-3-Ylmethylene)-Malononitrile], the EC50 in data set [1] (24 h) is 6350 nM. Further, the Emax in data set [1] stood at 76%.
For `Cc1c(Br)cc(C(C)C)c(O)c1C(=O)Nc1ccc([N+](=O)[O-])cc1Cl` [Example 41, 3-Bromo-N-(2-Chloro-4-Nitro-Phenyl)-6-Hydroxy-5-Isopropyl-2-Methyl-Benzamide], in data set [2], the EC50 was found to be 4000 nM, the Emax is 103% and the EC (Emax) turned out to be 30 µM.
With `Cc1cc(C(=O)Nc2ccc([N+](=O)[O-])cc2Cl)c(O)c(C(C)(C)C)c1` [Example 45, 3-Tert-Butyl-N-(2-Chloro-4-Nitro-Phenyl)-2-Hydroxy-5-Methyl-Benzamide], in data set [2], the EC50 came out at 600 nM, the Emax is 96% and the EC (Emax) came to 3 µM.
With `Cc1ccc(C(C)C)c(C(=O)Nc2ccc([N+](=O)[O-])cc2Cl)c1O` [Example 46, N-(2-Chloro-4-Nitro-Phenyl)-2-Hydroxy-6-Isopropyl-3-Methyl-Benzamide], in data set [2], the EC50 turned out to be 3000 nM, the maximal effect (Emax) is 103% and the EC (Emax) was 10 µM.
On the same counts, the results for `Cc1c(Br)cc(C(C)C)c(O)c1C(=O)Nc1ccc([N+](=O)[O-])cc1C(F)(F)F` [Example 57, 3-Bromo-6-Hydroxy-5-Isopropyl-2-Methyl-N-(4-Nitro-2-Trifluoromethyl-Phenyl)-Benzamide] are 310 nM, 90% and 10 µM.
The matching figures for `O=C(Nc1cc(C(F)(F)F)cc(C(F)(F)F)c1)c1cc(F)cc(C(F)(F)F)c1` [Example 64, N-(3,5-Bis-Trifluoromethyl-Phenyl)-3-Fluoro-5-Trifluoromethyl-Benzamide]: 2600 nM, 105% and 10 µM.
Consider `O=C(Nc1ccc([N+](=O)[O-])c(C(F)(F)F)c1)c1cc(F)cc(C(F)(F)F)c1` [Example 65, 3-Fluoro-N-(4-Nitro-3-Trifluoromethyl-Phenyl)-5-Trifluoromethyl-Benzamide], for which, in data set [2], the EC50 was 5300 nM, the Emax is 100% and the EC (Emax) was 10 µM.
On the same counts, the results for `O=C(Nc1cc(C(F)(F)F)cc(C(F)(F)F)c1)c1ccc(C(F)(F)F)c(F)c1` [Example 66, N-(3,5-Bis-Trifluoromethyl-Phenyl)-3-Fluoro-4-Trifluoromethyl-Benzamide] are 4300 nM, 95% and 10 µM.
On the same counts, the results for `O=C(Nc1ccc([N+](=O)[O-])c(C(F)(F)F)c1)c1ccc(F)c(C(F)(F)F)c1` [Example 67, 4-Fluoro-N-(4-Nitro-3-Trifluoromethyl-Phenyl)-3-Trifluoromethyl-Benzamide] are 5900 nM, 85% and 30 µM.
On the same counts, the results for `CC(C)(C)c1cc(/C=C(\C#N)c2ccncc2)cc(C(C)(C)C)c1O` [Example 78, 3-(3,5-Di-Tert-Butyl-4-Hydroxy-Phenyl)-2-Pyridin-4-Yl-Acrylonitrile] are 2900 nM, 80% and 10 µM.
As for `CC(C)(C)c1cc(/C=C(\C#N)c2cc(C(F)(F)F)cc(C(F)(F)F)c2)cc(C(C)(C)C)c1O` [Example 79, 2-(3,5-Bis-Trifluoromethyl-Phenyl)-3-(3,5-Di-Tert-Butyl-4-Hydroxy-Phenyl)-Acrylonitrile], in data set [2], the EC50 amounted to 1000 nM, the Emax amounted to 80% and the EC (Emax) turned out to be 3 µM. Also, the “HEP-G2 Tox” value in data set [2] (human, 3 h) is on record as “Tox 0.3 mM”.
As for `CC(C)(C)c1cc(/C=C(\C#N)C(=O)Nc2ccc(Cl)cc2)cc(C(C)(C)C)c1O` [Example 83, N-(4-Chloro-Phenyl)-2-Cyano-3-(3,5-Di-Tert-Butyl-4-Hydroxy-Phenyl)-Acrylamide], in data set [1] (setting [3]), the EC50 is 1100 nM. The Emax in data set [1] (setting [4]) came to 120%.
In the case of `CC(C)(C)c1cc(/C=C(\C#N)S(C)(=O)=O)cc(C(C)(C)C)c1O` [Example 84, (E)-3-(3,5-Di-Tert-Butyl-4-Hydroxy-Phenyl)-2-Methanesulfonyl-Acrylonitrile], in data set [1] (setting [3]), the half-maximal effective concentration (EC50) was 1400 nM.
Consider `CC(C)(C)c1cc(/C=C(\C#N)S(=O)(=O)c2ccc(Cl)cc2)cc(C(C)(C)C)c1O` [Example 85, (E)-2-(4-Chloro-Benzenesulfonyl)-3-(3,5-Di-Tert-Butyl-4-Hydroxy-Phenyl)-Acrylonitrile], for which the EC50 in data set [1] (setting [3]) is 800 nM.

By EC50 is commonly meant the concentration needed to bring the measured effect to its halfway point. A word on the Emax: it is the greatest response seen or fitted, relative to the assay's reference.
